# Measurements published in BigSolDB 2.1.
compound,measurement,setting,value
CC(=O)Oc1ccc(C2CC(=O)c3c(OC(C)=O)cc(OC(C)=O)cc3O2)cc1 (stereo not given),solubility (mole fraction),"in 2-butoxyethanol, 278.2 K",0.0018
same,solubility (mole fraction),"in 2-butoxyethanol, 288.2 K",0.00253
same,solubility (mole fraction),"in 2-butoxyethanol, 298.2 K",0.00337
same,solubility (mole fraction),"in 2-butoxyethanol, 308.2 K",0.00476
same,solubility (mole fraction),"in 2-butoxyethanol, 318.2 K",0.00712
same,solubility (mole fraction),"in 2-methoxyethanol, 278.2 K",0.00836
same,solubility (mole fraction),"in 2-methoxyethanol, 288.2 K",0.0108
same,solubility (mole fraction),"in 2-methoxyethanol, 298.2 K",0.0174
same,solubility (mole fraction),"in 2-methoxyethanol, 308.2 K",0.0235
same,solubility (mole fraction),"in 2-methoxyethanol, 318.2 K",0.0356
same,solubility (mole fraction),"in 2-propoxyethanol, 278.2 K",0.00485
same,solubility (mole fraction),"in 2-propoxyethanol, 288.2 K",0.00629
same,solubility (mole fraction),"in 2-propoxyethanol, 298.2 K",0.00775
same,solubility (mole fraction),"in 2-propoxyethanol, 308.2 K",0.00887
same,solubility (mole fraction),"in 2-propoxyethanol, 318.2 K",0.0116
same,solubility (mole fraction),"in THF, 278.2 K",0.0413
same,solubility (mole fraction),"in THF, 288.2 K",0.0483
same,solubility (mole fraction),"in THF, 298.2 K",0.058
same,solubility (mole fraction),"in THF, 308.2 K",0.0732
same,solubility (mole fraction),"in THF, 318.2 K",0.0902
same,solubility (mole fraction),"in acetone, 278.2 K",0.0759
same,solubility (mole fraction),"in acetone, 288.2 K",0.0869
same,solubility (mole fraction),"in acetone, 298.2 K",0.11
same,solubility (mole fraction),"in acetone, 308.2 K",0.129
same,solubility (mole fraction),"in acetone, 318.2 K",0.166
same,solubility (mole fraction),"in ethanol, 278.2 K",0.000721
same,solubility (mole fraction),"in ethanol, 288.2 K",0.000931
same,solubility (mole fraction),"in ethanol, 298.2 K",0.00132
same,solubility (mole fraction),"in ethanol, 308.2 K",0.00175
same,solubility (mole fraction),"in ethanol, 318.2 K",0.00239
same,solubility (mole fraction),"in ethyl acetate, 278.2 K",0.022
same,solubility (mole fraction),"in ethyl acetate, 288.2 K",0.034
same,solubility (mole fraction),"in ethyl acetate, 298.2 K",0.045
same,solubility (mole fraction),"in ethyl acetate, 308.2 K",0.0714
same,solubility (mole fraction),"in ethyl acetate, 318.2 K",0.103
same,solubility (mole fraction),"in isopropanol, 278.2 K",0.000289
same,solubility (mole fraction),"in isopropanol, 288.2 K",0.000426
same,solubility (mole fraction),"in isopropanol, 298.2 K",0.000667
same,solubility (mole fraction),"in isopropanol, 308.2 K",0.00102
same,solubility (mole fraction),"in isopropanol, 318.2 K",0.00152
same,solubility (mole fraction),"in methanol, 278.2 K",0.00122
same,solubility (mole fraction),"in methanol, 288.2 K",0.00155
same,solubility (mole fraction),"in methanol, 298.2 K",0.00217
same,solubility (mole fraction),"in methanol, 308.2 K",0.00289
same,solubility (mole fraction),"in methanol, 318.2 K",0.00407
same,solubility (mole fraction),"in n-butanol, 278.2 K",0.000228
same,solubility (mole fraction),"in n-butanol, 288.2 K",0.000353
same,solubility (mole fraction),"in n-butanol, 298.2 K",0.000491
same,solubility (mole fraction),"in n-butanol, 308.2 K",0.000752
same,solubility (mole fraction),"in n-butanol, 318.2 K",0.00106
same,solubility (mole fraction),"in n-hexanol, 278.2 K",1.8e-05
same,solubility (mole fraction),"in n-hexanol, 288.2 K",2.4e-05
same,solubility (mole fraction),"in n-hexanol, 298.2 K",3e-05
same,solubility (mole fraction),"in n-hexanol, 308.2 K",4.6e-05
same,solubility (mole fraction),"in n-hexanol, 318.2 K",6.4e-05
same,solubility (mole fraction),"in n-pentanol, 278.2 K",0.000249
same,solubility (mole fraction),"in n-pentanol, 288.2 K",0.000402
same,solubility (mole fraction),"in n-pentanol, 298.2 K",0.000556
same,solubility (mole fraction),"in n-pentanol, 308.2 K",0.00101
same,solubility (mole fraction),"in n-pentanol, 318.2 K",0.00141
same,solubility (mole fraction),"in n-propanol, 278.2 K",0.000649
same,solubility (mole fraction),"in n-propanol, 288.2 K",0.000873
same,solubility (mole fraction),"in n-propanol, 298.2 K",0.00127
same,solubility (mole fraction),"in n-propanol, 308.2 K",0.00165
same,solubility (mole fraction),"in n-propanol, 318.2 K",0.00245
same,solubility (mole fraction),"in sec-butanol, 278.2 K",0.000216
same,solubility (mole fraction),"in sec-butanol, 288.2 K",0.000372
same,solubility (mole fraction),"in sec-butanol, 298.2 K",0.000507
same,solubility (mole fraction),"in sec-butanol, 308.2 K",0.000824
same,solubility (mole fraction),"in sec-butanol, 318.2 K",0.00122
